Measurements taken from PubChem BioAssay (NCI).
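Cells were grown in 96-well plates and exposed to each compound for 48 hours at five concentrations; endpoints were interpolated linearly between bracketing concentrations, or set to the highest concentration if not reached. At the TGI there is no net growth.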

Assays:
Experiment in all cases: growth of human tumour cells (NCI), 48 h
[1] = tested on: SK-MEL-2 melanoma
[2] = tested on: 786-0 renal
[3] = tested on: OVCAR-3 ovarian
[4] = tested on: SK-OV-3 ovarian
[5] = tested on: HT29 colon
[6] = tested on: MDA-N
[7] = tested on: EKVX NSCLC
[8] = tested on: RXF 393 renal
[9] = tested on: NCI-H226 lung
[10] = tested on: RPMI-8226 leukemia
[11] = tested on: TK-10 renal
[12] = tested on: DU-145 prostate
[13] = tested on: NCI-H460 lung
[14] = tested on: HOP-92 NSCLC
[15] = tested on: SR leukemia
[16] = tested on: SNB-19 CNS
[17] = tested on: UACC-62 melanoma
[18] = tested on: NCI-H23 lung
[19] = tested on: MDA-MB-231 breast
[20] = tested on: UO-31 renal
[21] = tested on: OVCAR-4 ovarian
[22] = tested on: SK-MEL-28 melanoma
[23] = tested on: M14 melanoma
[24] = tested on: NCI-H522 lung
[25] = tested on: SF-268 CNS
[26] = tested on: SF-539 CNS
[27] = tested on: KM12 colon
[28] = tested on: A498 renal
[29] = tested on: ACHN renal
[30] = tested on: COLO 205 colon
[31] = tested on: NCI/ADR-RES ovarian
[32] = tested on: SN12C renal
[33] = tested on: UACC-257 melanoma
[34] = tested on: CAKI-1 renal
[35] = tested on: PC-3 prostate
[36] = tested on: IGROV1 ovarian
[37] = tested on: A549 NSCLC
[38] = tested on: HS 578T breast
[39] = tested on: OVCAR-5 ovarian
[40] = tested on: HCC-2998 colon
[41] = tested on: HCT-116 colon
[42] = tested on: HOP-62 NSCLC
[43] = tested on: MDA-MB-435
[44] = tested on: U251 CNS
[45] = tested on: LOX IMVI melanoma
[46] = tested on: MALME-3M melanoma
[47] = tested on: CCRF-CEM leukemia
[48] = tested on: HCT-15 colon
[49] = tested on: SK-MEL-5 melanoma
[50] = tested on: SW-620 colon
[51] = tested on: HL-60(TB) leukemia
[52] = tested on: SNB-75 CNS
[53] = tested on: MCF7 breast
[54] = tested on: SF-295 CNS
[55] = tested on: T-47D breast
[56] = tested on: K-562 leukemia
[57] = tested on: OVCAR-8 ovarian
[58] = tested on: MOLT-4 leukemia

COC1(C)OC[C@@]2(C)OC(C)C1(C)C2O[Si](C(C)C)(C(C)C)C(C)C (stereo partly drawn)
TGI [1]: 45.2 µM
TGI [2]: > 100 µM
TGI [3]: 50 µM
TGI [4]: > 100 µM
TGI [5]: > 100 µM
TGI [6]: > 100 µM
TGI [7]: 70.9 µM
TGI [8]: 57 µM
TGI [9]: 45.8 µM
TGI [10]: 89.3 µM
TGI [11]: 80.2 µM
TGI [12]: > 100 µM
TGI [13]: 62.9 µM
TGI [14]: 63 µM
TGI [15]: 85.7 µM
TGI [16]: > 100 µM
TGI [17]: > 100 µM
TGI [18]: 62.5 µM
TGI [19]: > 100 µM
TGI [20]: 96.7 µM
TGI [21]: > 100 µM
TGI [22]: > 100 µM
TGI [23]: > 100 µM
TGI [24]: 59.1 µM
TGI [25]: > 100 µM
TGI [26]: > 100 µM
TGI [27]: > 100 µM
TGI [28]: > 100 µM
TGI [29]: 62.2 µM
TGI [30]: 32.3 µM
TGI [31]: 60.3 µM
TGI [32]: 58.4 µM
TGI [33]: 47.6 µM
TGI [34]: 88 µM
TGI [35]: > 100 µM
TGI [36]: 78.5 µM
TGI [37]: > 100 µM
TGI [38]: 86.8 µM
TGI [39]: 71.8 µM
TGI [40]: 40.8 µM
TGI [41]: > 100 µM
TGI [42]: > 100 µM
TGI [43]: > 100 µM
TGI [44]: > 100 µM
TGI [45]: 42.6 µM
TGI [46]: 51 µM
TGI [47]: 54.6 µM
TGI [48]: 48 µM
TGI [49]: 52.5 µM
TGI [50]: > 100 µM
TGI [51]: 40.4 µM
TGI [52]: 69.4 µM
TGI [53]: 32.9 µM
TGI [54]: 47.3 µM
TGI [55]: 71.3 µM
TGI [56]: 82.3 µM
TGI [57]: > 100 µM
TGI [58]: 50.9 µM

COC(=O)c1cc(CC2Cc3cc4c(cc3C2)CCC4)cc2c1CCC2
TGI [1]: > 100 µM
TGI [2]: > 100 µM
TGI [3]: > 100 µM
TGI [4]: > 100 µM
TGI [5]: > 100 µM
TGI [6]: > 100 µM
TGI [7]: > 100 µM
TGI [8]: > 100 µM
TGI [9]: > 100 µM
TGI [10]: > 100 µM
TGI [11]: > 100 µM
TGI [12]: > 100 µM
TGI [13]: > 100 µM
TGI [14]: > 100 µM
TGI [15]: 94 µM
TGI [16]: > 100 µM
TGI [18]: > 100 µM
TGI [19]: > 100 µM
TGI [20]: > 100 µM
TGI [21]: > 100 µM
TGI [22]: > 100 µM
TGI [23]: > 100 µM
TGI [24]: > 100 µM
TGI [25]: > 100 µM
TGI [26]: > 100 µM
TGI [27]: > 100 µM
TGI [28]: > 100 µM
TGI [29]: > 100 µM
TGI [30]: > 100 µM
TGI [31]: > 100 µM
TGI [32]: > 100 µM
TGI [33]: > 100 µM
TGI [34]: > 100 µM
TGI [35]: > 100 µM
TGI [36]: > 100 µM
TGI [37]: > 100 µM
TGI [38]: > 100 µM
TGI [39]: > 100 µM
TGI [40]: > 100 µM
TGI [41]: > 100 µM
TGI [42]: > 100 µM
TGI [43]: > 100 µM
TGI [44]: > 100 µM
TGI [45]: > 100 µM
TGI [46]: > 100 µM
TGI [47]: > 100 µM
TGI [48]: > 100 µM
TGI [49]: > 100 µM
TGI [50]: > 100 µM
TGI [51]: > 100 µM
TGI [52]: > 100 µM
TGI [53]: > 100 µM
TGI [54]: > 100 µM
TGI [55]: > 100 µM
TGI [56]: > 100 µM
TGI [57]: > 100 µM
TGI [58]: 55.7 µM

C/C(O)=c1\cc(C#N)c(=C(C#N)C#N)nc1C
TGI [1]: > 100 µM
TGI [2]: > 100 µM
TGI [5]: > 100 µM
TGI [6]: > 100 µM
TGI [7]: > 100 µM
TGI [8]: > 100 µM
TGI [9]: > 100 µM
TGI [10]: > 100 µM
TGI [12]: > 100 µM
TGI [13]: > 100 µM
TGI [14]: > 100 µM
TGI [15]: > 100 µM
TGI [16]: > 100 µM
TGI [17]: > 100 µM
TGI [18]: > 100 µM
TGI [19]: > 100 µM
TGI [20]: > 100 µM
TGI [21]: > 100 µM
TGI [22]: > 100 µM
TGI [23]: > 100 µM
TGI [24]: > 100 µM
TGI [25]: > 100 µM
TGI [26]: > 100 µM
TGI [27]: > 100 µM
TGI [28]: > 100 µM
TGI [29]: > 100 µM
TGI [30]: > 100 µM
TGI [31]: > 100 µM
TGI [32]: > 100 µM
TGI [34]: > 100 µM
TGI [35]: > 100 µM
TGI [36]: > 100 µM
TGI [37]: > 100 µM
TGI [38]: > 100 µM
TGI [39]: > 100 µM
TGI [40]: > 100 µM
TGI [41]: > 100 µM
TGI [42]: > 100 µM
TGI [43]: > 100 µM
TGI [44]: > 100 µM
TGI [45]: > 100 µM
TGI [46]: > 100 µM
TGI [47]: > 100 µM
TGI [48]: > 100 µM
TGI [49]: > 100 µM
TGI [50]: > 100 µM
TGI [51]: > 100 µM
TGI [52]: > 100 µM
TGI [53]: > 100 µM
TGI [55]: > 100 µM
TGI [56]: > 100 µM
TGI [57]: > 100 µM
TGI [58]: > 100 µM
